Measurements taken from patent US20250084095A1, “Aminopyrimidine Derivatives as Cyclin-Dependent Kinase Inhibitors” (Accutar Biotechnology Inc., priority 2023, published 2025).

Assays:
[1] = system: Phospho-Rb (Ser807/811) in MCF7 cells; test: Phospho-Rb expression inhibition in MCF7 cells quantified by in cell Western; format: cell-based, human; settings: Homo sapiens, MCF7, 24 h, 24 hours, in cell Western, read-out: MCF7 pRb IC50
Experimental: MCF7 cells were obtained from American Type Culture Collection (ATCC, HTB-22). MCF7 cells were plated in 96-well plates (VWR #10062-900, or Coming #3904) in 90 μL culture medium at a density of 20,000 cells/well in the DMEM growth medium containing 10%/FBS and 1% Penicillin Streptomycin, and then incubated at 37° C. overnight. The following day, the test compound was administered to the cells by using 1000× compound stock solution prepared in DMSO at various concentrations. 1000× compound stock solution was first diluted in culturing medium to 10×, then 10 μL compound medium was added to each well in the cell plates. After administration of the compound, the cells were then incubated at 37° C. for 24 h. Upon completion, the cells were washed with PBS briefly. 150 μL/well of 4% formaldehyde was added and the plates were incubated at room temperature for 20 min. The cells were washed with PBS briefly, and permeabilized with 150 µL/well of ice cold 100% methanol for 10 min. The cells were washed with PBS briefly and blocked with 100 µL/well LI-COR blocking buffer for 1 h at room temperature with gentle shaking. The cells were incubated overnight at 4° C. with 50 μL primary antibody rabbit anti-Phospho-Rb (Ser807/811) (1: 500, Cell Signaling, #8516) and anti-Rb (1:200, Santa Cruz, sc-73598) diluted in Intercept Blocking Buffer (LI-COR, #927-60001) containing 0.1% Tween 20. The next day, the cells were washed with 200 μL PBS containing 0.1% Tween 20, 5×5 mins at room temperature with gentle shaking, and incubated with 50 μL secondary antibody, IRDye® 800CW Goat anti-Rabbit IgG (1:1000, LI-COR, #926-32211) and FRDye® 680RD Goat anti-Mouse IgG (1:1000, LI-COR, #926-68070), in LI-COR […] blocking buffer with 0.2% Tween 20 for 1 h at room temperature with gentle shaking. The cells were washed with 200 μL PBS containing 0.1% Tween 20, 5×5 min at room temperature with gentle shaking. The cells were washed with PBS for 5 mins. 100 μL fresh PBS was added to each well and the plates were imaged on a LI-COR Odyssey CLX plate reader.
MCF7 cells were obtained from American Type Culture Collection (ATCC, HTB-22). SW1573-CDK6 KO and SW1573-CDK4 KO cells were generated by the CRISPR-Cas9 technology. All cells were plated in 96-well plates (VWR #10062-900, or Corning #3904) in 90 uL culture medium at a density of 20,000 cells/well in the respective growth medium containing 10% FBS and 1% Penicillin Streptomycin, and then incubated at 37° C. overnight. The following day, the test compound was administered to the cells by using 1000× compound stock solution prepared in DMSO at various concentrations. 1000× compound stock solution was first diluted in culturing medium to 10×, then 10 uL compound medium was added to each well in the cell plates. After administration of the compound, the cells were then incubated at 37° C. for 24 hours. Upon completion, the cells were washed with PBS briefly. 150 uL/well of 4% formaldehyde was added and the plates were incubated at room temperature for 20 mins. The cells were washed with PBS briefly, and permeabilized with 150 uL/well of ice cold 100% methanol for 10 mins. The cells were washed with PBS briefly and blocked with 100 uL/well LI-COR blocking buffer for 1 hr at room temperature with gentle shaking. The cells were incubated overnight at 4° C. with 50 uL primary antibody rabbit anti-Phospho-Rb (Ser807/811) (1: 500, Cell Signaling, #8516) and anti-Rb (1:200, Santa Cruz, sc-73598) diluted in Intercept Blocking Buffer (LI-COR, #927-60001) containing 0.1% Tween 20. The next day, the cells were washed with 200 uL PBS containing 0.1% Tween 20, 5×5 mins at room temperature with gentle shaking, and incubated with 50 uL secondary antibody, IRDye® 800CW Goat anti-Rabbit IgG (1:1000, LI-COR, #926-32211) and IRDye®680RD Goat anti-Mouse IgG (1:1000, LI-COR, #926-68070), in LI-COR blocking buffer with 0.2% Tween 20 for 1 hr at room temperature with gentle shaking. […]

22RV1 cells = test: Cell growth inhibition of 22RV1 cells (CellTiter-Glo); format: cell-based; settings: Homo sapiens, 22Rv1, 120 h, 5 days, CellTiter-Glo, read-out: 22RV1 Cell Growh GI50
Experimental: For cell growth assay, 22RV1 (ATCC, CRL-2505) cells were seeded in 96-well plates at 1000 cells/well in 90 μl of RPMI1640 growth medium containing 20% FBS and 1% Penicillin Streptomycin, and then incubated at 37° C. overnight. The following day, the test compound was administered to the cells by using 1000× compound stock solution prepared in DMSO at various concentrations. 1000× compound stock solution was first diluted in culturing medium to 10×, then 10 uL compound medium was added to each well in the cell plates. After administration of the compound, the cells were then incubated at 37° C. for 5 days. Upon completion, the plates were equilibrated at room temperature for approximately 10 min. 100 μl of CellTiter-Glo® Reagent (Promega) was added to each well. The plates were then incubated at room temperature for 10 min and luminescence was recorded by EnSpire plate reader (PerkinElmer).
22RV1 cells were obtained from American Type Culture Collection (ATCC, CRL-2505). 22RV1 cells were seeded in 96-well plates at 1000 cells/well in 90 μL of RPMI1640 growth medium containing 10% FBS and 1% Penicillin Streptomycin, and then incubated at 37° C. overnight. The following day, the test compound was administered to the cells by using 1000× compound stock solution prepared in DMSO at various concentrations. […], then 10 uL compound medium was added to each well in the cell plates. After administration of the compound, the cells were then incubated at […] for 5 days. Upon completion, the plates were equilibrated at room temperature for approximately 10 minutes. 100 μL of CellTiter-Glo® Reagent (Promega) was added to each well. The plates were then incubated at room temperature for 10 minutes and luminescence was recorded by EnSpire plate reader (PerkinElmer).

| Structure (SMILES) | IC50 [1] [nM] | GI50 (22RV1 cells) [nM] |
| --- | --- | --- |
| CC(C)c1cc2cc(-c3nc(N[C@@H]4C[C@H]5CO[C@H](O5)[C@H]4O)ncc3Cl)ccc2c(=O)n1C [Compound 237, 6-(5-chloro-2-(((1S,3R,4S,5R)-4-hydroxy-6,8-dioxabicyclo[3.2.1]octan-3-yl)amino)pyrimidin-4-yl)-3-isopropyl-2-methylisoquinolin-1(2H)-one] | 40 to 150 | 450 to 3000 |
| CC(C)n1c(C(C)(C)N2CC(F)(F)C2)nc2c(F)cc(-c3nc(N[C@@H]4C[C@H]5CO[C@H](O5)[C@H]4O)ncc3Cl)cc21 [Compound 222, (1S,3R,4S,5R)-3-((5-chloro-4-(2-(2-(3,3-difluoroazetidin-1-yl)propan-2-yl)-4-fluoro-1-isopropyl-1H-benzo[d]imidazol-6-yl)pyrimidin-2-yl)amino)-6,8-dioxabicyclo[3.2.1]octan-4-ol] | 150 to 1000 | 450 to 3000 |
| CN(C)C(=O)c1cc2c(F)cc(-c3nc(N[C@@H]4C[C@H]5CO[C@H](O5)[C@H]4O)ncc3Cl)cc2n1C1CCCC1 [Compound 183, 6-(5-chloro-2-(((1S,3R,4S,5R)-4-hydroxy-6,8-dioxabicyclo[3.2.1]octan-3-yl)amino)pyrimidin-4-yl)-1-cyclopentyl-4-fluoro-N,N-dimethyl-1H-indole-2-carboxamide] | > 1000 | > 3000 |
| CC(C)[C@H]1COC(=O)N1c1nc2c(F)cc(-c3nc(N[C@@H]4C[C@H]5CO[C@H](O5)[C@H]4O)ncc3Cl)cc2n1C(C)C [Compound 297, (S)-3-(6-(5-chloro-2-(((1S,3R,4S,5R)-4-hydroxy-6,8-dioxabicyclo[3.2.1]octan-3-yl)amino)pyrimidin-4-yl)-4-fluoro-1-isopropyl-1H-benzo[d]imidazol-2-yl)-4-isopropyloxazolidin-2-one] | 150 to 1000 | 450 to 3000 |
| Cc1c(-c2nc(N[C@@H]3C[C@H]4CO[C@H](O4)[C@H]3O)ncc2F)sc2c(C)c(C(C)(C)O)cnc12 [Compound 278, (1S,3R,4S,5R)-3-((5-fluoro-4-(6-(2-hydroxypropan-2-yl)-3,7-dimethylthieno[3,2-b]pyridin-2-yl)pyrimidin-2-yl)amino)-6,8-dioxabicyclo[3.2.1]octan-4-ol] | ≤ 40 | ≤ 120 |
| CC(C)n1c(N2CC[C@@H](F)C2)nc2c(F)cc(-c3nc(N[C@@H]4C[C@H]5CO[C@H](O5)[C@H]4O)ncc3Cl)cc21 [Compound 151, (1S,3R,4S,5R)-3-((5-chloro-4-(4-fluoro-2-((R)-3-fluoropyrrolidin-1-yl)-1-isopropyl-1H-benzo[d]imidazol-6-yl)pyrimidin-2-yl)amino)-6,8-dioxabicyclo[3.2.1]octan-4-ol] | 40 to 150 | 120 to 450 |
| CC(C)N1CCOc2c(F)cc(-c3nc(N[C@@H]4C[C@H]5CO[C@H](O5)[C@H]4O)ncc3Cl)cc21 [Compound 173, (1S,3R,4S,5R)-3-((5-chloro-4-(8-fluoro-4-isopropyl-3,4-dihydro-2H-benzo[b][1,4]oxazin-6-yl)pyrimidin-2-yl)amino)-6,8-dioxabicyclo[3.2.1]octan-4-ol] | 40 to 150 | 120 to 450 |
| CC(C)(O)c1cnc2c(Cl)cc(-c3nc(N[C@@H]4C[C@H]5CO[C@H](O5)[C@H]4O)ncc3F)cc2c1Cl [Compound 285, (1S,3R,4S,5R)-3-((4-(4,8-dichloro-3-(2-hydroxypropan-2-yl)quinolin-6-yl)-5-fluoropyrimidin-2-yl)amino)-6,8-dioxabicyclo[3.2.1]octan-4-ol] | ≤ 40 | ≤ 120 |
| C[C@@H]1COc2c(-c3nc(N[C@@H]4C[C@H]5CO[C@H](O5)[C@H]4O)ncc3Cl)cc(F)c3nc(C(C)(C)O)n1c23 [Compound 38, (1S,3R,4S,5R)-3-((5-chloro-4-((R)-8-fluoro-2-(2-hydroxypropan-2-yl)-3-methyl-3,4-dihydro-5-oxa-1,2a-diazaacenaphthylen-6-yl)pyrimidin-2-yl)amino)-6,8-dioxabicyclo[3.2.1]octan-4-ol] | ≤ 40 | 120 to 450 |
| CC(C)n1c(C(C)(C)O)nc2c(F)cc(-c3nc(N[C@@H]4C[C@H]5CO[C@H](O5)[C@H]4O)ncc3F)cc21 [Compound 27, (1S,3R,4S,5R)-3-((5-fluoro-4-(4-fluoro-2-(2-hydroxypropan-2-yl)-1-isopropyl-1H-benzo[d]imidazol-6-yl)pyrimidin-2-yl)amino)-6,8-dioxabicyclo[3.2.1]octan-4-ol] | 40 to 150 | 120 to 450 |
| CC(C)(O)c1cnc2c(Cl)cc(-c3nc(N[C@@H]4C[C@H]5CO[C@H](O5)[C@H]4O)ncc3Cl)cc2c1Cl [Compound 286, (1S,3R,4S,5R)-3-((5-chloro-4-(4,8-dichloro-3-(2-hydroxypropan-2-yl)quinolin-6-yl)pyrimidin-2-yl)amino)-6,8-dioxabicyclo[3.2.1]octan-4-ol] | ≤ 40 | ≤ 120 |
| Cc1c(CN2CCC(F)(F)C2)n(C(C)C)c2cc(-c3nc(N[C@@H]4C[C@H]5CO[C@H](O5)[C@H]4O)ncc3F)ccc2c1=O [Compound 208, 2-((3,3-difluoropyrrolidin-1-yl)methyl)-7-(5-fluoro-2-(((1S,3R,4S,5R)-4-hydroxy-6,8-dioxabicyclo[3.2.1]octan-3-yl)amino)pyrimidin-4-yl)-1-isopropyl-3-methylquinolin-4(1H)-one] | ≤ 40 | ≤ 120 |
| CC(C)(O)c1nc2c(F)cc(-c3nc(N[C@@H]4C[C@H]5CO[C@H](O5)[C@H]4O)ncc3Cl)cc2n1C1(CF)CC1 [Compound 167, (1S,3R,4S,5R)-3-((5-chloro-4-(4-fluoro-1-(1-(fluoromethyl)cyclopropyl)-2-(2-hydroxypropan-2-yl)-1H-benzo[d]imidazol-6-yl)pyrimidin-2-yl)amino)-6,8-dioxabicyclo[3.2.1]octan-4-ol] | 40 to 150 | ≤ 120 |
